Entries after “also recorded” stand apart in the source; their conditions may differ. Marks after values point to notes of the source that are not given here.
How the values were obtained:
[1] = test system: Escherichia coli O157:H7; assay: Inhibition of biofilm formation, crystal violet staining assay; assay type: cell-based; details: for Biofilm (OD 595 nm): 24 hr; for Biofilm (OD 595 nm) / biofilm formed (CVSA), in words: 30° C.
Method: (§1) Biofilm formation was quantified with modifications using the method described by Stepanovic et al. (Journal of Microbiological Methods, 2000, 40(2), 175-19) with modifications. Using a 96-well microplate duplicate the test solutions were filled at the above selected doses. Cultures were grown for 18 hr in LB at 30° C. and adjusted to OD 0.1 at 600 nm. 20 μL of the culture were added into each well and the remainder of the volume to 200 μL per well was filled with LB. Unused external wells were filled with 200 μL of sterile water to prevent evaporation.
(§2) After 24 hr of incubation, supernatants were discarded, and the wells were washed three times with 200 μL of sterile phosphate buffered saline (PBS). Bacteria adhered to the wells were fixed with 200 μL of methanol for 15 min, the methanol was discarded, and the plates dried at 25° C.
(§3) Each well was stained with 200 μL of 0.3% (w/v) crystal violet solution for 5 min at 25° C. Crystal violet excess was pipetted out, and the wells were rinsed five times with sterile PBS. 200 μL of 33% (v/v) glacial acetic acid were added to the wells for 30 min to solubilise the dye adhered to the cell walls. Optical density (OD) was measured at 595 nm using a microplate spectrophotometer as a direct measure of biofilm formation. P. aeruginosa in 3% DMSO will be used as the negative control.
A stock solution of 1000 μg of phenylcapsaicin and capsaicin was prepared by dissolving 1000 μg in 100 μL of ethanol and 900 μL of sterile water. The stock solutions were sequentially diluted with double and then quadruple volumes of solvent (10% aqueous ethanol solution) to yield 500/125/31.25 (32)/7.81 (8) μg/ml test solutions.
(§4) E. coli O157:H7 was used to determine the biofilm inhibition activity. Inducer N-hexanoyl homoserine lactone (C6-HSL) was purchased from Sigma-Aldrich. E. coli O157:H7 was cultivated in Luria-Bertani (LB) medium (LB, 5 g yeast extract, 10 g tryptone, 5 g NaCl, 1 L water) at 37° C. overnight under aerobic conditions.
Crystal violet staining assay was performed as in Experiment 3, using E. coli O157:H7 in 3% DMSO as the control.

[2] = Rage Paulsen et al., Toxicology Research and Application 2018; cited from earlier work
[3] = test system: P. aeruginosa (ATCC® 15442); assay: Inhibition of biofilm formation, crystal violet staining assay; assay type: cell-based, Pseudomonas aeruginosa; details: for Biofilm (OD 595 nm): 24 hr; for Biofilm (OD 595 nm) / biofilm formed (CVSA), in words: 30° C.; for inhibition of biofilm formation, conclusion in words: any dose tested; for biofilm formed (CVSA), in words: concentrations less than 125 ug/ml
Method: A stock solution of 1000 ug of V and capsaicin was prepared by dissolving 1000 μg in 100 μl of ethanol and 900 μl of sterile water. The stock solutions were sequentially diluted with […] of solvent (10% aqueous ethanol solution) to yield 500/125//31.25/7.81 μg/ml test solutions.
as §4, with “P. aeruginosa (ATCC® 15442) was” for “E. coli O157:H7 was”, “Sigma-Aldrich. ATCC® 15442” for “Sigma-Aldrich. E. coli O157:H7”, “at 30°” for “at 37°”
as §1, §2, §3

SMILES	Biofilm (OD 595 nm) ([1]; 8 μg/mL)	biofilm formed (CVSA), in words ([1]; 8 μg/ml lowest dose tested)	Biofilm (OD 595 nm) ([1]; 32 μg/mL)	biofilm formed (CVSA), in words ([1]; 125 and 32 μg/ml)	safety with regards to gene mutations and chromosomal damage [2]	systemic toxicity [2]	Biofilm (OD 595 nm) ([3]; 7.81 μg/mL)	Biofilm (OD 595 nm) ([3]; 31.125 μg/mL)	Biofilm (OD 595 nm) ([3]; 125 μg/mL)	inhibition of biofilm formation, conclusion in words [3]	biofilm formed (CVSA), in words [3]	Biofilm (OD 595 nm) ([1]; 125 μg/mL)	biofilm formation inhibition, in words ([1]; 125, 32 and 8 μg/ml, any dose tested)
COc1cc(CNC(=O)CCCCC#Cc2ccccc2)ccc1O [Phenylcapsaicin, N-[(4-hydroxy-3-methoxyphenyl)methyl]-7-phenylhept-6-ynamide]	4.9^b OD 595 nm	no effect	2.4^b OD 595 nm	significantly reduced; also recorded: good inhibitor of biofilm formation	safe	low systemic toxicity	1.7^b OD 595 nm	1.3^b OD 595 nm	1.9^b OD 595 nm	potent inhibitor of biofilm formation	significantly reduced	–	–
COc1cc(CNC(=O)CCCC/C=C/C(C)C)ccc1O [Capsaicin, (E)-N-(4-hydroxy-3-methoxybenzyl)-8-methylnon-6-enamide, reference compound]	5.9^a OD 595 nm	–	5.8^a OD 595 nm	–	–	–	7.1^a OD 595 nm	7.0^a OD 595 nm	7.2^a OD 595 nm	did not exhibit any biofilm formation inhibition	did not show any reduction of biofilm formation	5.1^a OD 595 nm	did not show any reduction of biofilm formation; also recorded: did not exhibit any biofilm formation inhibition
